Test results taken from publication PMC9395446, “First-in-human phase 1/1b study to evaluate sitravatinib in patients with advanced solid tumors” (Investigational New Drugs, 2022).
Several values for one entry are separate records, joined by “and”; a condition that tells them apart may be missing. Equal values may be shown once.

Experiments:
advanced solid tumors = assay: Clinical activity by RECIST v1.1 (ORR, DoR, PFS, OS), phase 1b; type: in vivo, human
Description: Clinical activity was assessed by objective response rate (ORR) according to Response Evaluation Criteria In Solid Tumors (RECIST) v1.1. Additional endpoints included duration of response (DoR), progression-free survival (PFS) and overall survival (OS) in phase 1b cohorts of patients based on diagnosis and tumor molecular alterations. An exploratory post-hoc analysis of patients with non-squamous NSCLC who experienced disease progression on prior checkpoint inhibitor (CPI) therapy was performed.
Disease status was evaluated according to RECIST v1.1 at baseline and every three cycles in phase 1, and every two cycles (6-week intervals) in phase 1b. Assessments were performed until objective disease progression was documented or until subsequent anti-cancer therapy started (see Supplementary Information [Sect. 1.3] for details).
DoR, PFS and OS were reported descriptively and summarized using the Kaplan–Meier method. DoR was defined as the time from first documentation of objective tumor response (complete response [CR] or partial response [PR]) until first documentation of disease progression per RECIST 1.1 or death (any cause). PFS was defined as the time from first dose of study treatment until progressive disease as defined by RECIST 1.1 or death (any cause). OS was defined as the time from first dose of study treatment until death (any cause).

[1] = rat, in vivo, 4 weeks
Description: The starting dose of 10 mg QD was selected based on non-clinical, 4-week toxicology studies conducted in rats and dogs. […] The proposed human dose was based on one-tenth of the STD10 in rats corrected for body surface area (mg/m^2).

[2] = phase 1b NSCLC KIF5B-RET (n=13)
[3] = phase 1b NSCLC RET rearrangement (n=23)
[4] = phase 1b all molecular alterations (n=113)
[5] = phase 1b mITT overall (n = 161)
[6] = phase 1b overall RET rearrangement (n=31)

SMILES: COCCNCc1ccc(-c2cc3nccc(Oc4ccc(NC(=O)C5(C(=O)Nc6ccc(F)cc6)CC5)cc4F)c3s2)nc1 [sitravatinib, Sitravatinib]
- PD (progressive disease) (advanced solid tumors; phase 1b MET alteration (n=17)): 2 (11.8) n (%)
- PFS 6-month KM estimate (95% CI) (advanced solid tumors; phase 1b MET alteration (n=17)): 16.4 (2.8, 40.0) %
- PFS median (95% CI) (advanced solid tumors; phase 1b MET alteration (n=17)): 2.9 (1.9, 4.3) months
- PR (advanced solid tumors; phase 1b MET alteration (n=17)): 2 (11.8) n (%)
- CR (advanced solid tumors; [2]): 0 n (%)
- DoR 6-month KM estimate (95% CI) (advanced solid tumors; [2]): 100.0 (100.0, 100.0) %
- DoR median (95% CI) (advanced solid tumors; [2]): 10.2 (NE, NE) months
- NE (advanced solid tumors; [2]): 3 (23.1) n (%)
- ORR (advanced solid tumors; [2]): 1 (7.7) n (%)
- OS 12-month KM estimate (95% CI) (advanced solid tumors; [2]): 79.5 (39.3, 94.5) %
- OS median (95% CI) (advanced solid tumors; [2]): 27.2 (10.9, 33.8) months
- PD (progressive disease) (advanced solid tumors; [2]): 3 (23.1) n (%)
- PFS 6-month KM estimate (95% CI) (advanced solid tumors; [2]): 36.4 (11.2, 62.7) %
- PFS median (95% CI) (advanced solid tumors; [2]): 5.7 (1.5, 13.5) months
- PR (advanced solid tumors; [2]): 1 (7.7) n (%)
- CR (advanced solid tumors; [3]): 0 n (%)
- DoR 6-month KM estimate (95% CI) (advanced solid tumors; [3]): 25.0 (0.9, 66.5) %
- DoR median (95% CI) (advanced solid tumors; [3]): 2.3 (1.8, 10.2) months
- NE (advanced solid tumors; [3]): 3 (13.0) n (%)
- ORR (advanced solid tumors; [3]): 4 (17.4) n (%)
- OS 12-month KM estimate (95% CI) (advanced solid tumors; [3]): 73.2 (46.6, 88.1) %
- OS median (95% CI) (advanced solid tumors; [3]): 27.2 (10.9, NE) months
- PD (progressive disease) (advanced solid tumors; [3]): 3 (13.0) n (%)
- PFS 6-month KM estimate (95% CI) (advanced solid tumors; [3]): 40.3 (19.5, 60.4) %
- PFS median (95% CI) (advanced solid tumors; [3]): 5.7 (3.0, 13.5) months
- PR (advanced solid tumors; [3]): 4 (17.4) n (%)
- CR (advanced solid tumors; phase 1b RCC (n=38)): 0 n (%)
- DoR 6-month KM estimate (95% CI) (advanced solid tumors; phase 1b RCC (n=38)): 100.0 (100.0, 100.0) %
- DoR median (95% CI) (advanced solid tumors; phase 1b RCC (n=38)): 13.2 (6.8, NE) months
- NE (advanced solid tumors; phase 1b RCC (n=38)): 3 (7.9) n (%)
- ORR (advanced solid tumors; phase 1b RCC (n=38)): 8 (21.1) n (%)
- OS 12-month KM estimate (95% CI) (advanced solid tumors; phase 1b RCC (n=38)): 60.1 (41.3, 74.6) %
- OS median (95% CI) (advanced solid tumors; phase 1b RCC (n=38)): 29.3 (10.8, 33.4) months
- PD (progressive disease) (advanced solid tumors; phase 1b RCC (n=38)): 4 (10.5) n (%)
- PFS 6-month KM estimate (95% CI) (advanced solid tumors; phase 1b RCC (n=38)): 62.6 (43.5, 76.9) %
- PFS median (95% CI) (advanced solid tumors; phase 1b RCC (n=38)): 9.5 (4.3, 11.7) months
- PR (advanced solid tumors; phase 1b RCC (n=38)): 8 (21.1) n (%)
- CR (advanced solid tumors; [4]): 0 n (%)
- DoR 6-month KM estimate (95% CI) (advanced solid tumors; [4]): 53.0 (20.9, 77.3) %
- DoR median (95% CI) (advanced solid tumors; [4]): 7.0 (1.9, 15.2) months
- ORR (advanced solid tumors; [4]): 11 (9.7) n (%)
- OS 12-month KM estimate (95% CI) (advanced solid tumors; [4]): 36.1 (26.3, 45.9) %
- OS median (95% CI) (advanced solid tumors; [4]): 9.9 (7.1, 10.9) months
- PD (progressive disease) (advanced solid tumors; [4]): 23 (20.4) n (%)
- PFS 6-month KM estimate (95% CI) (advanced solid tumors; [4]): 28.5 (19.6, 38.0) %
- PFS median (95% CI) (advanced solid tumors; [4]): 3.6 (2.7, 4.4) months
- PR (advanced solid tumors; [4]): 11 (9.7) n (%)
- CR (advanced solid tumors; [5]): 0 n (%)
- DoR 6-month KM estimate (95% CI) (advanced solid tumors; [5]): 71.3% and 71.3 (44.0, 87.0) %
- DoR median (95% CI) (advanced solid tumors; [5]): 8.2 months and 8.2 (4.3, 16.6) months
- NE (non-evaluable) (advanced solid tumors; [5]): 26 (16.1) n (%)
- ORR (advanced solid tumors; [5]): 19 (11.8) n (%)
- OS 12-month KM estimate (95% CI) (advanced solid tumors; [5]): 41.3% and 41.3 (32.7, 49.6) %
- OS median (95% CI) (advanced solid tumors; [5]): 10.7 months and 10.7 (9.9, 11.9) months
- PD (progressive disease) (advanced solid tumors; [5]): 28 (17.4) n (%)
- PFS 6-month KM estimate (95% CI) (advanced solid tumors; [5]): 37.5% and 37.5 (29.2, 45.9) %
- PFS median (95% CI) (advanced solid tumors; [5]): 4.3 months and 4.3 (3.1, 5.6) months
- PR (advanced solid tumors; [5]): 19 (11.8) n (%)
- CR (advanced solid tumors; [6]): 0 n (%)
- DoR 6-month KM estimate (95% CI) (advanced solid tumors; [6]): 40.0 (5.2, 75.3) %
- DoR median (95% CI) (advanced solid tumors; [6]): 2.8 (1.8, 10.2) months
- NE (advanced solid tumors; [6]): 3 (9.7) n (%)
- ORR (advanced solid tumors; [6]): 5 (16.1) n (%)
- OS 12-month KM estimate (95% CI) (advanced solid tumors; [6]): 66.5 (43.3, 82.0) %
- OS median (95% CI) (advanced solid tumors; [6]): 18.2 (10.9, 33.8) months
- PD (progressive disease) (advanced solid tumors; [6]): 5 (16.1) n (%)
- PFS 6-month KM estimate (95% CI) (advanced solid tumors; [6]): 39.5 (21.8, 56.7) %
- PFS median (95% CI) (advanced solid tumors; [6]): 5.3 (3.0, 6.7) months
- PR (advanced solid tumors; [6]): 5 (16.1) n (%)
- Highest dose not exceeding the severely toxic dose in 10% of animals (STD10) [1]: 10 mg/kg
